From patent publication US20180312539A1, “METHODS FOR PREPARING HIGH THROUGHPUT PEPTIDOMIMETICS, ORALLY BIOAVAILABLE DRUGS AND COMPOSITIONS CONTAINING SAME” (University of Southern California, priority 2011, published 2018) come the findings set out here.

A short description of data set [1]: Membrane localization on PAMPA membrane. The settings on record: 0.2 mM peptide, 0 and 15 min. Format: in vitro ADME. The source says:
Membrane was set up as described above. […] Care was taken not to disrupt the membrane when samples were removed.
In order to study the mechanism of this enhanced permeation in more detail, Applicants quantitated the biotin-peptide conjugate's membrane localization.
(In general: The PAMPA barrier holds no transporters, so it reflects passive diffusion.)

A short description of data set [2]: PAMPA (parallel artificial membrane permeability assay). The data set is classed as in vitro ADME. The following applies: lauric acid in place of biotin. Here is the method: PAMPA assays were set up following manufacturer's instructions. Briefly, 1% phosphatidyl choline (Sigma) was dissolved in dodecane (Sigma) at 65° C. for 3 min. The membrane was applied to each well as per manufacturer's instructions. […] 100 μL of sample was put into each donor well. The acceptor wells contained 300 μL of a 5% DMSO in PBS solution. Passive diffusion was allowed to occur at room temperature for 24 hrs. […] Absorbance at 215 nm was monitored. The area under the peptide peak was integrated.
The acceptor well contained 10 mM DTT as a reducing agent. Data was collected after 6, 12 and 24 hrs. Absorbance at 280 nm was analyzed. The following formula was used to calculate Log Pe: […]
Applicants employed a parallel artificial membrane permeability assay (PAMPA) that will allow for the rapid screening of peptide passive diffusion across a phospholipid bilayer. (Schmidt, et al. (2003) J. Millipore Corporation Application Note AN1729EN00.). In this assay, two chambers are separated by a phospholipid bilayer supported on an inert membrane. Applicants chose to initially focus Applicants examination on peptide ligands developed to bind with high affinity to the heterotrimeric G-proteins Gαi1*GDP and Gα12*GDP. Ja, W. W., et al. (2004) Biochemistry 43:9265; Millward, S. W., et al. (2007) ACS Chem. Biol. 2:625; Fiacco, S. et al. (2008) ChemBioChem 9:2200. These ligands included variations in sequence, size, overall charge, and polarity as well as comparing linear and cyclic peptides, end and biotinylation. […] According to classical methods of increasing permeability. Pinski, C. A., et al. (2001) Advanced Drug Delivery Reviews 46:3. Applicants postulated that the removal of hydrogen bond donors by N-methylation should further increase the permeability of this peptide.

The structures appear in SMILES notation.

For `CCCCCCCCCCCC(=O)O` [Lauric acid], the membrane localization in data set [1] worked out at 27%. In addition, the “Log Pe” value in data set [2] was −6.8.
